In US20260176393A1, “PRESERVATIVE COMPOSITION FOR BIOLOGICAL SAMPLES” (KANAZAWA UNIVERSITY, priority 2022, published 2026):

How the values were obtained:
[1] = Osmotic pressure, vapor pressure-type osmometer; assay type: physicochemical; conditions: 10 wt % in Water
Description: A vapor pressure-type osmometer (VAPRO 5600; Wescor, Inc., Logan, UT, USA) was used, and an osmotic pressure was measured in a 10 mL standard chamber (room temperature: 25° C., apparatus sensor temperature: 33° C., sample volume: 10 μL).

[2] = tested on: Human kidney cells (BOSC); experiment: Cryopreservation test, survival rate of BOSC cells; assay type: cell-based; conditions: 10 wt % in Water; after cryopreservation
Description: In the case of adherent cells, the cells to be frozen were treated with trypsin and recovered by centrifugation. In the case of floating cells, the cells to be frozen were recovered by centrifugation. The cells of each type were diluted with Dulbecco's modified Eagle medium (DMEM), and the cell concentration was measured. In the present specification, the DMEM solution is also simply referred to as a medium.
Subsequently, each dilution was dispensed at 1 mL/tube to 1.5 mL tubes, and the cells were suspended in a cryopreservative solution containing 100 μL of a zwitterion polymer solution and frozen at a cooling temperature of −85° C. and a cooling rate of −1° C./min by a cell freezing container Mr. Frosty®. In the present Examples, the commercially available cryopreservative solution used was CultureSure® (manufactured by FUJIFILM Wako Pure Chemical Corp.) unless otherwise specified. The cryopreservation time was set to 48 hours. Then, the cells were thawed at a tube temperature of 37° C. and used in live cell counting.
The cells were thawed by the addition of 1 mL of a medium to the cryopreservation vial at 37° C. and centrifuged to remove a supernatant. The cells thus obtained by centrifugation were resuspended in a medium, followed by live cell counting.

mouse fibroblasts (mNF) = experiment: Cryopreservation test, survival rate of mNF cells; assay type: cell-based; conditions: 10 wt % in Water; after cryopreservation
Description: In the case of adherent cells, the cells to be frozen were treated with trypsin and recovered by centrifugation. In the case of floating cells, the cells to be frozen were recovered by centrifugation. The cells of each type were diluted with Dulbecco's modified Eagle medium (DMEM), and the cell concentration was measured. In the present specification, the DMEM solution is also simply referred to as a medium. […] Frosty®. In the present Examples, the commercially available cryopreservative solution used was CultureSure® (manufactured by FUJIFILM Wako Pure Chemical Corp.) unless otherwise specified. The cryopreservation time was set to 48 hours. Then, the cells were thawed at a tube temperature of 37° C. and used in live cell counting. The cells were thawed by the addition of 1 mL of a medium to the cryopreservation vial at 37° C. and centrifuged to remove a supernatant. The cells thus obtained by centrifugation were resuspended in a medium, followed by live cell counting.

## C=Cn1cc[n+](CCCC(=O)[O-])c1 [VimC3C]
[1]
  Osmotic pressure: 860 mOsm/kg
[2]
  Survival rate (BOSC): 0.15
Mouse fibroblasts (mNF)
  Survival rate (mNF): 0.42
